Results: patent US20250011368A1, “DLL3 TARGETING PEPTIDES AND CONSTRUCTS THEREOF” (MARIANA ONCOLOGY INC., priority 2023, published 2025)
Numbered stars: 1 amine (or outer) side, 2 acyl side, 3 side chain; on linkers, the order of the positions; unused ones are H or OH. Bridge positions count the residues as written; N and C are the ends. Square brackets hold non-standard residues; d marks the D form. Peptide text beside a SMILES is read from it. * marks the point of attachment. Ala(piperidin-4-yl) = O=C([C@H](CC1CCN([*:3])CC1)N[*:1])[*:2]; DOTA = O=C(O)CN1CCN(CC(=O)O)CCN(CC(=O)*)CCN(CC(=O)O)CC1; Ala(morpholin-4-yl) = N[C@@H](CN1CCOCC1)C(=O)O; 2Nal = N[C@@H](Cc1ccc2ccccc2c1)C(=O)O; 3Pal = N[C@@H](Cc1cccnc1)C(=O)O; 4Pal = N[C@@H](Cc1ccncc1)C(=O)O

T1: human DLL3 (Homo sapiens, UniProt Q9NYJ7)
T1 sequence (Q9NYJ7 27-618): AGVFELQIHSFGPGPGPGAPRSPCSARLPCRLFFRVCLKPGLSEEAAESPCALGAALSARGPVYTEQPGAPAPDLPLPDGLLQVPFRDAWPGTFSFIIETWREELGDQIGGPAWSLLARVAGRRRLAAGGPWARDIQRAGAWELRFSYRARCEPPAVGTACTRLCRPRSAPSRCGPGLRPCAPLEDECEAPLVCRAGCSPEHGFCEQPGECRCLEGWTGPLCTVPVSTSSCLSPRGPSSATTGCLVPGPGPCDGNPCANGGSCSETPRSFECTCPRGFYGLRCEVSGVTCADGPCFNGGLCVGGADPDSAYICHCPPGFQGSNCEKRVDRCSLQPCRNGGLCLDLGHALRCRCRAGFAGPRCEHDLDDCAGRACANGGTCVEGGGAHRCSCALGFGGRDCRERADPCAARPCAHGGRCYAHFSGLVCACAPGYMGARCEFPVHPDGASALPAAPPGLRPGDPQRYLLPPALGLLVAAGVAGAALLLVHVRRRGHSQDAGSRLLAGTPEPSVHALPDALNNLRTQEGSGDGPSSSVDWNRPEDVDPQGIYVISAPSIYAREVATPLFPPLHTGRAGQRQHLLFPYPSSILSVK

T2: DLL3 on CT26.DLL3 cells (Homo sapiens (Human), UniProt Q9NYJ7 27-618)
T2 construct: CT26.DLL3 are engineered cells to express DLL3
T2 sequence: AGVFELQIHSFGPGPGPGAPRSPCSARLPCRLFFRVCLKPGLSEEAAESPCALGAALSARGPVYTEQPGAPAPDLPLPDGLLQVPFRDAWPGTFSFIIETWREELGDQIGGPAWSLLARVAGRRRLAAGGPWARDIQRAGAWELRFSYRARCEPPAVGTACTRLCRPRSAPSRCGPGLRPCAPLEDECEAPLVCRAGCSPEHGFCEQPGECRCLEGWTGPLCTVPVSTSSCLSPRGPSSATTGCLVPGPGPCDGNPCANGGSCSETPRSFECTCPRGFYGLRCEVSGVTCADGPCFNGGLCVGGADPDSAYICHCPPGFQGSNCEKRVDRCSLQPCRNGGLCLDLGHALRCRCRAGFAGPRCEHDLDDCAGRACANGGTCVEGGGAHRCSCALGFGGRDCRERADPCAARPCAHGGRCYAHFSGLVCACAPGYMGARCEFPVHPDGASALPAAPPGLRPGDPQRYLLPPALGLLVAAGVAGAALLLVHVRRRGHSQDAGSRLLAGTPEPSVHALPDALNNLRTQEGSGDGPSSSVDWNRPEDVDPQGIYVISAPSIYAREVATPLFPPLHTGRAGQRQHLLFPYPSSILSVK


Tests used:
human DLL3 = target: T1, human DLL3; assay: Affinity determination by Surface Plasmon Resonance (SPR); format: binding; conditions: 25° C., biotinylated human DLL3 immobilized on streptavidin sensor chip, 1:1 binding model; read-out: SPR KD
How it was run: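 Kinetic and affinity constants were derived by fitting sensorgrams to a 1:1 binding model. Graded compound concentrations flowed at 100 μL/minute in 20 mM phosphate running buffer with 2% DMSO over streptavidin-immobilized biotinylated human DLL3, reference-subtracted.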

CT26.DLL3 cells [1] = assay: Cell binding (total uptake) of [177Lu]Lu-test peptide, CT26.DLL3 cells; format: cell-based; conditions: 1 hour at 37° C.
Protocol: (§1) [^177Lu]LuCl3 was received from venders in HCl solution. For every mCi of [^177Lu]LuCl3 added to the reaction vial (1.5 mL Eppendorf vial), ammonium acetate buffer (0.2 M, pH 4.9, 100 μL, containing 1% w/v ascorbic acid and 6% v/v ethanol) and peptide conjugate (1 nmol). A peptide conjugate of the present disclosure is also referred to herein as a “chelator-peptide”. The pH of the solution was determined to be approximately 5 by using pH strips. The reaction vial was incubated at 80° C., 700 RPM for 17-20 minutes. A sample from the reaction was analyzed by RP-HPLC using an Agilent Infinity II 1260 HPLC to determine reaction completion and radiochemical purity of [^177Lu]Lu-chelator-peptide. HPLC conditions: Waters XBridge BEH C18 Column, 130 Å, 3.5 um, 4.6 mm×250 mm; mobile phase: Solvent A=water (with 0.1% formic acid), solvent B=acetonitrile (with 0.1% formic acid). Gradients: 25-45% B in 10 minutes, 45-65% B in 12 minutes, 65-90% in 6 minutes at a flow rate of 0.5 mL/minute. Required amounts of the product was formulated in 1% PBSA for cell studies.
(§2) The study was conducted using SHP-77, CT26.WT, and CT26.DLL3 cells (Table 7) Adherent cell studies: The cells were cultured in appropriate culture media (20 mL) in tissue culture treated T150 flasks at 37° C. and 5% CO2. Adherent cells were detached (60-70% confluent) using 5 mL Versene at 37° C. for 3 minutes. After confirming the viability using countess and count of detached cells using Trypan blue, the cells were centrifuged at 4° C. for 5 minutes (1,000 rpm). The cell pellet obtained was washed once with PBS and resuspended in 1% PBSA to obtain the desired cell concentration (5-25 million cells/mL).
(§3) Cell numbers used for the assay were in the range of 5 million cells/condition −25 million cells/condition.
(§4) Total uptake: Cells were incubated with 300 μL (0.8 μCi) of the incubation buffer (containing radiolabeled peptide [^177Lu] Lu-test peptide) for 1 hour at 37° C. (Table 8). Post incubation, the cells were pelleted and washed 2 times using cold PBS+1% BSA. The supernatant and washes were combined and counted together as “unbound fraction” in a gamma counter. The cells were then resuspended in 300 μL of 1% PBS+1% BSA and counted in the gamma counter as “bound fraction”.
(§5) In these Tables, “A” represents %≤25; “B” represents 25<%≤50; “C” represents %>50.

SHP-77 tumors = assay: Ex vivo biodistribution of radiolabeled peptides in nude mice bearing SHP-77 tumors; conditions: [177Lu]Lu labelling, nude mice bearing SHP-77 tumors (n = 3), 24 hours post-injection
Protocol: Mice were intravenously injected (via the lateral tail vein) with a bolus dose of the radiolabeled peptides for ex vivo biodistribution studies when tumor volumes were in range of 200-400 mm^3 for xenograft mice and when age of the mice was 5-7 weeks for tumor naïve mice studies. To assess the amount of radionuclide injected into individual mice the syringe was assayed in a dose calibrator before and after injection for [^177Lu]Lu-peptide.
Mice were euthanized at pre-determined time points and selected tissues were resected and collected into pre-weighed tubes. The tubes were then reweighed post resection, the difference giving the weight of each tissue. Radioactivity in each tissue was measured using a gamma counter. Counts were decay corrected to the time of injection and percentage of injected activity per gram (% IA/g) was calculated for each tissue based on the injected activity into each individual mouse. Injected activity was converted to counts based on the sensitivity of the gamma counter. The counts in tissue were then converted to the percentage of injected activity and this was divided by the mass of tissue to give % IA/g.

CT26.DLL3 cells [2] = assay: Internalization (out of bound fraction) of [177Lu]Lu-test peptide, CT26.DLL3 cells; format: cell-based; conditions: 1 hour at 37° C., glycine pH 2.5 wash
Protocol: as §1, §2, §3, §4
Internalization: The resuspended cells in 300 μl of 1% PBSA and counted in the gamma counter as “bound fraction” were collected in 1.5 mL Eppendorf tube and pelleted. The pelleted cells were incubated with 300 μl of 50 mM Glycine pH=2.5 for 3 minutes and then pelleted discarding the supernatant. This process was repeated one more time. The pelleted cells were washed with 300 μl of cold 1% PBSA and then resuspended in 300 μl 0.3M NaOH. This was counted in the gamma counter as “internalized fraction”.
as §5

DLL3 on CT26.DLL3 cells = target: T2, DLL3 on CT26.DLL3 cells; assay: 177Lu-peptide bound to CT26.DLL3 cells, gamma counting; letter grade, key in paragraph 629
Protocol: as §2
Total uptake: Cells were incubated with 300 μL (0.8 μCi) of the incubation buffer (containing radiolabeled peptide [¹⁷⁷Lu] Lu-test peptide) for 1 hour at 37° C. (Table 8). Post incubation, the cells were pelleted and washed 2 times using cold PBS+1% BSA. The supernatant and washes were combined and counted together as “unbound fraction” in a gamma counter. The cells were then resuspended in 300 μL of 1% PBS+1% BSA and counted in the gamma counter as “bound fraction”.

Molecule	Kd (human DLL3) [nM]	% Binding (CT26.DLL3 cells [1])	kidney uptake (% IA/g) (SHP-77 tumors)	tumor uptake (% IA/g) (SHP-77 tumors)	% Internalization (out of bound fraction) (CT26.DLL3 cells [2])	% Binding (DLL3 on CT26.DLL3 cells) [%]
CC[C@H](C)[C@H](NC(=O)[C@@H](NC(=O)[C@H](Cc1c[nH]c2ccccc12)NC(C)=O)[C@@H](C)O)C(=O)N[C@H]1CSSC[C@@H](C(=O)N[C@@H](Cc2c[nH]c3ccccc23)C(=O)N2CCC[C@H]2C(=O)N[C@H](CCCCNC(=O)CN2CCN(CC(=O)O)CCN(CC(=O)O)CCN(CC(=O)O)CC2)C(N)=O)NC(=O)[C@H](CC(=O)O)NC(=O)[C@H](Cc2cnc[nH]2)NC(=O)[C@H](Cc2ccc3ccccc3c2)NC(=O)[C@H](Cc2ccncc2)NC(=O)[C@H](CC(N)=O)NC1=O [compound 266, Ac-W-T-I-C(3)-N-(4Pya)-(2Nal)-H-D-C(3)-W-P-[D-Lys(DOTA)]-NH2] (Ac-WTICN[4Pal][2Nal]HDCWP[dK](DOTA)-NH2; disulfide 4-10)	< 1	A (%≤25)	C (0 < % IA/g ≤ 10 in kidney)	A (0 < % IA/g ≤ 5 in tumor)	A (%≤25)	–
CC[C@H](C)[C@H](NC(=O)[C@@H](NC(=O)[C@H](Cc1c[nH]c2ccccc12)NC(C)=O)[C@@H](C)O)C(=O)N[C@H]1CSSC[C@@H](C(=O)N[C@@H](Cc2c[nH]c3ccccc23)C(=O)N2CCC[C@H]2C(=O)N[C@H](CCCCNC(=O)CN2CCN(CC(=O)O)CCN(CC(=O)O)CCN(CC(=O)O)CC2)C(N)=O)NC(=O)[C@H](CC(=O)O)NC(=O)[C@H](Cc2cnc[nH]2)NC(=O)[C@H](Cc2ccc3ccccc3c2)NC(=O)[C@H](CC2CCNCC2)NC(=O)[C@H](CC(N)=O)NC1=O [compound 267, Ac-W-T-I-C(3)-N-[3-(4-piperidinyl)-Ala]-(2Nal)-H-D-C(3)-W-P-[D-Lys(DOTA)]-NH2] (Ac-WTICN[Ala(piperidin-4-yl)][2Nal]HDCWP[dK](DOTA)-NH2; disulfide 4-10)	< 1	A (%≤25)	C (0 < % IA/g ≤ 10 in kidney)	A (0 < % IA/g ≤ 5 in tumor)	B (25<%≤50)	–
Ac-(5Fluoro-W)-T-(CHA)-C(3)-N-N-(2Nal)-H-D-C(3)-(7Aza-W)-(trans4Fluoro-P)-[D-Lys(DOTA)]-NH2 [compound 245]	< 1	A (%≤25)	D (% IA/g > 10 in kidney)	A (0 < % IA/g ≤ 5 in tumor)	B (25<%≤50)	–
Ac-WTIC[4Pal]N[2Nal]HDCWP[dK](DOTA)-NH2 (disulfide 4-10; also: 177Lu in the DOTA chelator, also called [177Lu]Lu-test peptide) [[177Lu]Lu-labelled Cpd No. 264]	–	–	–	–	–	≤ 25
Ac-WTICNN[2Nal]HNCWP[dK](DOTA)-NH2 (disulfide 4-10; also: 177Lu chelated in DOTA, also called [177Lu]Lu-test peptide) [[177Lu]Lu-labelled Cpd No. 211]	–	–	–	–	–	≤ 25
Ac-WTICNN[2Nal]KDCWP[dK](DOTA)-NH2 (disulfide 4-10; also: 177Lu in the DOTA chelator, also called [177Lu]Lu-test peptide) [[177Lu]Lu-labelled Cpd No. 237]	–	–	–	–	–	≤ 25
Ac-WTIC[Ala(morpholin-4-yl)]N[2Nal]HDCWP[dK](DOTA)-NH2 (disulfide 4-10; also: 177Lu in the DOTA chelator, also called [177Lu]Lu-test peptide) [[177Lu]Lu-labelled Cpd No. 261]	–	–	–	–	–	≤ 25
Ac-WTIC[3Pal]N[2Nal]HDCWP[dK](DOTA)-NH2 (disulfide 4-10; also: 177Lu in the DOTA chelator, also called [177Lu]Lu-test peptide) [[177Lu]Lu-labelled Cpd No. 263]	–	–	–	–	–	≤ 25
Ac-WTICN[Ala(piperidin-4-yl)][2Nal]HDCWP[dK](DOTA)-NH2 (disulfide 4-10; also: 177Lu in the DOTA chelator, also called [177Lu]Lu-test peptide) [[177Lu]Lu-labelled Cpd No. 267]	–	–	–	–	–	≤ 25
Ac-WTICN[4Pal][2Nal]HDCWP[dK](DOTA)-NH2 (disulfide 4-10; also: 177Lu in the DOTA chelator, also called [177Lu]Lu-test peptide) [[177Lu]Lu-labelled Cpd No. 266]	–	–	–	–	–	≤ 25
